For data set [1] the following is noted: cited from earlier work.
For data set [2] the following is noted: water, room temperature; cited from earlier work.
The nature of data set [3]: Solubility of Rebaudioside D (crystalline vs amorphous) in water. The settings on record: for solubility: room temperature, % = grams soluble in 100 grams of solvent. Type of data set: physicochemical. How it is done:
Hereinafter, unless specified otherwise the solubility of material is determined in RO (reverse osmosis) water at room temperature. Where the solubility is expressed as "%" it to be understood as number of grams of material soluble in 100 grams of solvent.
100g of crystalline Rebaudioside D, produced by PureCircle Sdn Bhd, with 98.1% purity (on anhydrous basis) was dissolved in 500 mL aqueous ethanol, containing 50% (vol.) ethanol. The solution was maintained at 50°C and dried using a YC-015 laboratory spray drier (Shanghai Pilotech Instrument & Equipment Co. Ltd., China) operating at 175°C inlet and 100°C outlet temperatures. […]

Where [4] appears, read: 50°C, solution crystallized after cooling down to room temperature (20°C).
Where [5] appears, read: 100°C, solution crystallized after cooling down to room temperature (20°C).

Read-outs that look alike come from different tables or passages of the source.

Consider `C=C1C[C@@]23CC[C@H]4[C@@](C)(CCC[C@@]4(C)C(=O)O[C@@H]4O[C@H](CO)[C@@H](O)[C@H](O)[C@H]4O)[C@@H]2CC[C@]1(O[C@@H]1O[C@H](CO)[C@@H](O)[C@H](O[C@@H]2O[C@H](CO)[C@@H](O)[C@H](O)[C@H]2O)[C@H]1O[C@@H]1O[C@H](CO)[C@@H](O)[C@H](O)[C@H]1O)C3` [Form 1 Hydrate, Rebaudioside A], for which the “Rate of dissolution in H2O at 25°C” value in data set [1] (in 60 minutes) is “Very low (<0.2% in 60 minutes)”.
`C=C1C[C@@]23CC[C@H]4[C@@](C)(CCC[C@@]4(C)C(=O)O[C@@H]4O[C@H](CO)[C@@H](O)[C@H](O)[C@H]4O)[C@@H]2CC[C@]1(O[C@@H]1O[C@H](CO)[C@@H](O)[C@H](O[C@@H]2O[C@H](CO)[C@@H](O)[C@H](O)[C@H]2O)[C@H]1O[C@@H]1O[C@H](CO)[C@@H](O)[C@H](O)[C@H]1O)C3` [Form 2 Anhydrous, Rebaudioside A]: the “Rate of dissolution in H2O at 25°C” value in data set [1] (in 5 minutes) was “Intermediate (<30% in 5 minutes)”.
For `C=C1C[C@@]23CC[C@H]4[C@@](C)(CCC[C@@]4(C)C(=O)O[C@@H]4O[C@H](CO)[C@@H](O)[C@H](O)[C@H]4O)[C@@H]2CC[C@]1(O[C@@H]1O[C@H](CO)[C@@H](O)[C@H](O[C@@H]2O[C@H](CO)[C@@H](O)[C@H](O)[C@H]2O)[C@H]1O[C@@H]1O[C@H](CO)[C@@H](O)[C@H](O)[C@H]1O)C3` [Form 3 Solvate, Rebaudioside A], in data set [1] (in 5 minutes), the “Rate of dissolution in H2O at 25°C” value is “High (>30% in 5 minutes)”.
For `C=C1C[C@@]23CC[C@H]4[C@@](C)(CCC[C@@]4(C)C(=O)O[C@@H]4O[C@H](CO)[C@@H](O)[C@H](O)[C@H]4O)[C@@H]2CC[C@]1(O[C@@H]1O[C@H](CO)[C@@H](O)[C@H](O[C@@H]2O[C@H](CO)[C@@H](O)[C@H](O)[C@H]2O)[C@H]1O[C@@H]1O[C@H](CO)[C@@H](O)[C@H](O)[C@H]1O)C3` [Form 4 Amorphous, Rebaudioside A], in data set [1] (in 5 minutes), the “Rate of dissolution in H2O at 25°C” value is reported as “High (>35% in 5 minutes)”.
Consider `C=C1C[C@@]23CC[C@H]4[C@@](C)(CCC[C@@]4(C)C(=O)O[C@@H]4O[C@H](CO)[C@@H](O)[C@H](O)[C@H]4O)[C@@H]2CC[C@]1(O[C@@H]1O[C@H](CO)[C@@H](O)[C@H](O[C@@H]2O[C@H](CO)[C@@H](O)[C@H](O)[C@H]2O)[C@H]1O[C@@H]1O[C@H](CO)[C@@H](O)[C@H](O)[C@H]1O)C3` [Rebaudioside A], for which, in data set [2], the thermodynamic equilibrium solubility is listed as 0.8%.
In the case of `C=C1C[C@@]23CC[C@H]4[C@@](C)(CCC[C@@]4(C)C(=O)O[C@@H]4O[C@H](CO)[C@@H](O)[C@H](O)[C@H]4O[C@@H]4O[C@H](CO)[C@@H](O)[C@H](O)[C@H]4O)[C@@H]2CC[C@]1(O[C@@H]1O[C@H](CO)[C@@H](O)[C@H](O[C@@H]2O[C@H](CO)[C@@H](O)[C@H](O)[C@H]2O)[C@H]1O[C@@H]1O[C@H](CO)[C@@H](O)[C@H](O)[C@H]1O)C3` [Rebaudioside D], the “solubility when heat is applied” value in data set [3] (water, heated, upon cooling to room temperature crystallizes back out from the solution) is given as “up to 0.5%”. In data set [3] (water), this molecule returned a solubility of 0.05%.
Consider `C=C1C[C@@]23CC[C@H]4[C@@](C)(CCC[C@@]4(C)C(=O)O[C@@H]4O[C@H](CO)[C@@H](O)[C@H](O)[C@H]4O[C@@H]4O[C@H](CO)[C@@H](O)[C@H](O)[C@H]4O)[C@@H]2CC[C@]1(O[C@@H]1O[C@H](CO)[C@@H](O)[C@H](O[C@@H]2O[C@H](CO)[C@@H](O)[C@H](O)[C@H]2O)[C@H]1O[C@@H]1O[C@H](CO)[C@@H](O)[C@H](O)[C@H]1O)C3` [amorphous Reb D, Rebaudioside D], for which the results for the “Solubility, % (in water)” value in data set [3] (20°C), in data set [3] (setting [4]) and in data set [3] (setting [5]) were 0.1%, 0.5% and 1.1%, respectively. In addition, the solubility in data set [3] (water) turned out to be 0.2%.
For the molecule `C=C1C[C@@]23CC[C@H]4[C@@](C)(CCC[C@@]4(C)C(=O)O[C@@H]4O[C@H](CO)[C@@H](O)[C@H](O)[C@H]4O[C@@H]4O[C@H](CO)[C@@H](O)[C@H](O)[C@H]4O)[C@@H]2CC[C@]1(O[C@@H]1O[C@H](CO)[C@@H](O)[C@H](O[C@@H]2O[C@H](CO)[C@@H](O)[C@H](O)[C@H]2O)[C@H]1O[C@@H]1O[C@H](CO)[C@@H](O)[C@H](O)[C@H]1O)C3` [crystalline Rebaudioside D, Rebaudioside D], the entries for the “Solubility, % (in water)” value in data set [3] (20°C), in data set [3] (setting [4]) and in data set [3] (setting [5]) were 0.05%, 0.2% and 0.5%, respectively. Also, the solubility in data set [3] (water) was found to be 0.05%.

The values above are taken from patent EP3181574A1, “HIGHLY SOLUBLE REBAUDIOSIDE D” (Purecircle USA, priority 2010, dated 2012).
